Data set [1] can be described thus: Cytotoxicity against human NCI-H460 cells and measured after 48 hrs by MTT assay. Type of data set: toxicity, cell-based. For orientation: Formazan colour is commonly taken as a measure of viable cells.
Data set [2] in a line: Cytotoxicity against human SW-620 cells and measured after 48 hrs by MTT assay. Type of data set: toxicity, cell-based.
A further data set concerns Candida albicans. Kind of data set: Antifungal activity against Candida albicans ATCC 10231 incubated for 16 to 24 hrs by broth microdilution based spectrophotometric analysis. In kind it is functional, organism-based. (Broth dilution looks for growth in wells or tubes with falling amounts of substance.)
The next data set concerns Escherichia coli. Kind of data set: Antibacterial activity against Escherichia coli ATCC 11775 incubated for 16 to 24 hrs by broth microdilution based spectrophotometric analysis. Type of data set: functional, organism-based.
Data set [3] relates to Mycobacterium tuberculosis. As to the kind of experiment: Antibacterial activity against Mycobacterium tuberculosis H37Ra ATCC 25177 incubated for 16 to 24 hrs by broth microdilution based spectrophotometric analysis. In kind it is functional, organism-based.
Data set [4] relates to Staphylococcus aureus. Kind of data set: Antibacterial activity against Staphylococcus aureus ATCC 25923 incubated for 16 to 24 hrs by broth microdilution based spectrophotometric analysis. Type of data set: functional, organism-based.
The subject of the next data set is Enterococcus faecalis. Kind of data set: Antibacterial activity against Enterococcus faecalis incubated for 16 to 24 hrs by broth microdilution based spectrophotometric analysis. Type of data set: functional, organism-based.
Data set [5] has as its system Staphylococcus aureus. Kind of data set: Antibacterial activity against methicillin-resistant Staphylococcus aureus ATCC 43300 incubated for 16 to 24 hrs by broth microdilution based spectrophotometric analysis. In kind it is functional, organism-based.
Data set [6] concerns Staphylococcus aureus. Kind of data set: Antibacterial activity against methicillin-resistant Staphylococcus aureus ATCC 33591 incubated for 16 to 24 hrs by broth microdilution based spectrophotometric analysis. Type of data set: functional, organism-based.
The next data set relates to Enterococcus faecium. As to the kind of experiment: Antibacterial activity against vancomycin-resistant Enterococcus faecium incubated for 16 to 24 hrs by broth microdilution based spectrophotometric analysis. In kind it is functional, organism-based.

The structures appear in SMILES notation.

The term IC50 denotes the midpoint of a concentration-inhibition curve. Higher therefore signals lower potency. On to `COc1cc(C)c(C(=O)O[C@H]2[C@H](O[C@H]3CC[C@H](C)[C@@H]4[C@@H]3C=C(C)[C@H]3/C(C)=C/CC/C(C)=C/[C@@H]5C=C(C(=O)O)[C@H](C)C[C@]56OC(=O)C(=C6O)C(=O)[C@@]43C)O[C@H](C)[C@@H](O)[C@H]2O)c(O)c1`, for which the half-inhibitory concentration (IC50) at 48 h in data set [1] and in data set [2] was more than 30 µM throughout. Besides, the IC50 with Candida albicans is more than 30 µM; in the data set on Escherichia coli, more than 30 µM; in data set [3], more than 30 µM; in the data set on Staphylococcus aureus [4], 18.4 µM; with Enterococcus faecalis, 2.7 µM; in the data set on Staphylococcus aureus [5], 16.3 µM. The concentration for half-maximal inhibition (IC50) in the data set on Staphylococcus aureus [6] stood at 8.6 µM; in the data set with Enterococcus faecium it was 2.9 µM.
On to `COc1cc(C)c(C(=O)O[C@H]2[C@@H](O)[C@H](O[C@H]3CC[C@H](C)[C@@H]4[C@@H]3C=C(C)[C@H]3/C(C)=C/CC/C(C)=C/[C@@H]5C=C(C(=O)O)[C@H](C)C[C@]56OC(=O)C(=C6O)C(=O)[C@@]43C)O[C@H](C)[C@H]2O)c(O)c1`, for which the half-inhibitory concentration (IC50) at 48 h in data set [1] and in [2] was more than 30 µM in each case. Moreover, the concentration for half-maximal inhibition (IC50) in the data set with Candida albicans was more than 30 µM; with Escherichia coli it was more than 30 µM; in [3], more than 30 µM; with Staphylococcus aureus [4] it was 8.4 µM; in the data set with Enterococcus faecalis it was 8.9 µM; with Staphylococcus aureus [5], 7.9 µM. The figures for the half-maximal inhibitory concentration (IC50) in the data set on Staphylococcus aureus [6] and in the data set with Enterococcus faecium were 5.8 µM and 2.9 µM, respectively.
As for `CC(=O)O[C@H]1CC[C@H](C)[C@@H]2[C@@H]1C=C(C)[C@H]1/C(C)=C/CC/C(C)=C/[C@]3(C)C=C(C(=O)O)[C@H](C)C[C@]34OC(=O)C(=C4O)C(=O)[C@@]21C`, the half-inhibitory concentration (IC50) in the data set with Staphylococcus aureus [4], in the data set on Enterococcus faecalis, in the data set on Staphylococcus aureus [5], in the data set on Staphylococcus aureus [6] and with Enterococcus faecium was more than 30 µM throughout.
In the case of `COc1cc(C)c(C(=O)N[C@@H]2[C@@H](C)O[C@@H](O[C@H]3CC[C@H](C)[C@@H]4[C@@H]3C=C(C)[C@H]3/C(C)=C/CC/C(C)=C/[C@@H]5C=C(C(=O)O)[C@H](C)C[C@]56OC(=O)C(=C6O)C(=O)[C@@]43C)[C@H](O)[C@]2(C)O)c(O)c1`, the concentration for half-maximal inhibition (IC50) at 48 h in data set [1] and in data set [2] was more than 30 µM each time. In addition, the half-inhibitory concentration (IC50) with Candida albicans was more than 30 µM; with Escherichia coli, more than 30 µM; in data set [3], more than 30 µM; in the data set with Staphylococcus aureus [4] it was 6.4 µM; in the data set with Enterococcus faecalis it was 5.7 µM; with Staphylococcus aureus [5], 4.4 µM. In addition, the half-inhibitory concentration (IC50) with Staphylococcus aureus [6] was found to be 1.9 µM; in the data set on Enterococcus faecium it was 5.2 µM.
In the case of `CC(=O)O[C@H]1CC[C@H](C)[C@@H]2[C@@H]1C=C(C)[C@H]1/C(C)=C/CC/C(C)=C/[C@@H]3C=C(C(=O)O)[C@H](C)C[C@]34OC(=O)C(=C4O)C(=O)[C@@]21C`, the concentration for half-maximal inhibition (IC50) in the data set on Staphylococcus aureus [4], in the data set on Enterococcus faecalis, in the data set on Staphylococcus aureus [5], in the data set on Staphylococcus aureus [6] and with Enterococcus faecium was more than 30 µM in each case.
In the case of `COc1cc(C)c(C(=O)O[C@H]2[C@@H](O)[C@@H](O)[C@H](O[C@H]3CC[C@H](C)[C@@H]4[C@@H]3C=C(C)[C@H]3/C(C)=C/CC/C(C)=C/[C@]5(C)C=C(C(=O)O)[C@H](C)C[C@]56OC(=O)C(=C6O)C(=O)[C@@]43C)O[C@@H]2C)c(O)c1`, the half-maximal inhibitory concentration (IC50) at 48 h in [1] and in [2] was more than 30 µM in each case. The half-maximal inhibitory concentration (IC50) (with Candida albicans; in the data set on Escherichia coli; in data set [3]; with Staphylococcus aureus [4]; in the data set on Enterococcus faecalis; in the data set with Staphylococcus aureus [5]) was more than 30 µM throughout. For the same compound, the 50% inhibitory concentration (IC50) with Staphylococcus aureus [6] and in the data set on Enterococcus faecium was more than 30 µM each time.
With `CCCCC(=O)O[C@H]1CC[C@H](C)[C@@H]2[C@@H]1C=C(C)[C@H]1/C(C)=C/CC/C(C)=C/[C@]3(C)C=C(C)[C@H](C)C[C@]34OC(=O)C(=C4O)C(=O)[C@@]21C`, the IC50 came out at 0.2 µM in the data set with Staphylococcus aureus [4]; 0.5 µM in the data set on Enterococcus faecalis; 1.6 µM in the data set with Staphylococcus aureus [5]; 1.4 µM in the data set on Staphylococcus aureus [6]; 1.6 µM in the data set with Enterococcus faecium.
`CC(=O)O[C@H]1CC[C@H](C)[C@@H]2[C@@H]1C=C(C)[C@H]1/C(C)=C/CC/C(C)=C/[C@@H]3C=C(C)[C@H](C)C[C@]34OC(=O)C(=C4O)C(=O)[C@@]21C`: the IC50 at 48 h in [1] and in [2] was more than 30 µM each time. For the same compound, the IC50 in the data set on Candida albicans was more than 30 µM; in the data set on Escherichia coli, more than 30 µM; in data set [3], more than 30 µM; in the data set on Staphylococcus aureus [4] it was 0.8 µM; in the data set with Enterococcus faecalis, 3 µM; in the data set with Staphylococcus aureus [5], 0.3 µM. In addition, the half-maximal inhibitory concentration (IC50) in the data set with Staphylococcus aureus [6] is 6.8 µM; with Enterococcus faecium it was 6.7 µM.
Take `COc1cc(C)c(C(=O)O[C@H]2[C@@H](O)[C@@H](O)[C@H](O[C@H]3CC[C@H](C)[C@@H]4[C@@H]3C=C(C)[C@H]3/C(C)=C/CC/C(C)=C/[C@]5(C)C=C(C(=O)O)[C@H](C)C[C@]56OC(=O)C(=C6O)C(=O)[C@@]43C)O[C@@H]2C)c(OC)c1`: the half-inhibitory concentration (IC50) at 48 h in [1] and in data set [2] was more than 30 µM throughout. For the same compound, the IC50 with Candida albicans was more than 30 µM; in the data set on Escherichia coli, more than 30 µM; in [3], more than 30 µM; with Staphylococcus aureus [4], 4.9 µM; in the data set with Enterococcus faecalis, 6.2 µM; with Staphylococcus aureus [5] it was 3.9 µM. Further, the half-inhibitory concentration (IC50) came to 2.3 µM in the data set on Staphylococcus aureus [6] and 3.2 µM in the data set on Enterococcus faecium.
Turning to `COc1cc(C)c(C(=O)N[C@@H]2[C@@H](C)O[C@@H](O[C@H]3CC[C@H](C)[C@@H]4[C@@H]3C=C(C)[C@H]3/C(C)=C/CC/C(C)=C/[C@]5(C)C=C(C(=O)O)[C@H](C)C[C@]56OC(=O)C(=C6O)C(=O)[C@@]43C)[C@H](O)[C@]2(C)O)c(O)c1`, the IC50 at 48 h in [1] and in data set [2] was more than 30 µM each time. Also, the IC50 in the data set with Candida albicans was more than 30 µM; in the data set on Escherichia coli it was more than 30 µM; in [3], more than 30 µM; in the data set with Staphylococcus aureus [4], 11.9 µM; in the data set with Enterococcus faecalis, 7.3 µM; with Staphylococcus aureus [5] it was 9.1 µM. The half-maximal inhibitory concentration (IC50) in the data set on Staphylococcus aureus [6] is 2.2 µM; with Enterococcus faecium it was 9.5 µM.
With `COc1cc(C)c(C(=O)O[C@H]2[C@H](O[C@H]3CC[C@H](C)[C@@H]4[C@@H]3C=C(C)[C@H]3/C(C)=C/CC/C(C)=C/[C@]5(C)C=C(C(=O)O)[C@H](C)C[C@]56OC(=O)C(=C6O)C(=O)[C@@]43C)O[C@H](C)[C@@H](O)[C@H]2O)c(O)c1`, the half-maximal inhibitory concentration (IC50) at 48 h in [1] and in data set [2] was more than 30 µM throughout. In addition, the IC50 was more than 30 µM in the data set on Candida albicans; more than 30 µM in the data set on Escherichia coli; more than 30 µM in data set [3]; 10 µM in the data set on Staphylococcus aureus [4]; 13 µM with Enterococcus faecalis; 15.2 µM in the data set on Staphylococcus aureus [5]. Moreover, the 50% inhibitory concentration (IC50) in the data set with Staphylococcus aureus [6] came out at 10.2 µM; in the data set on Enterococcus faecium, 7.3 µM.
Regarding `CCCCCCCCCCCC(=O)O[C@H]1CC[C@H](C)[C@@H]2[C@@H]1C=C(C)[C@H]1/C(C)=C/CC/C(C)=C/[C@]3(C)C=C(C)[C@H](C)C[C@]34OC(=O)C(=C4O)C(=O)[C@@]21C`, the half-maximal inhibitory concentration (IC50) in the data set with Staphylococcus aureus [4], in the data set on Enterococcus faecalis, in the data set on Staphylococcus aureus [5], in the data set with Staphylococcus aureus [6] and in the data set on Enterococcus faecium was more than 30 µM each time.
For the compound `CC1=C[C@H]2[C@@H]([C@@H](C)CC[C@@H]2O[C@@H]2O[C@H](C)[C@@H](O)[C@@H](O)[C@H]2O)[C@]2(C)C(=O)C3=C(O)[C@@]4(C[C@@H](C)C(C(=O)O)=C[C@@]4(C)/C=C(\C)CC/C=C(\C)[C@H]12)OC3=O`, the concentration for half-maximal inhibition (IC50) in the data set with Staphylococcus aureus [4], in the data set on Enterococcus faecalis, in the data set on Staphylococcus aureus [5], in the data set with Staphylococcus aureus [6] and in the data set with Enterococcus faecium was more than 30 µM throughout.
For the compound `CC1=C[C@H]2[C@@H]([C@@H](C)CC[C@@H]2O)[C@]2(C)C(=O)C3=C(O)[C@@]4(C[C@@H](C)C(C(=O)O)=C[C@@]4(C)/C=C(\C)CC/C=C(\C)[C@H]12)OC3=O`, the IC50 in the data set on Staphylococcus aureus [4], with Enterococcus faecalis, in the data set on Staphylococcus aureus [5], in the data set on Staphylococcus aureus [6] and with Enterococcus faecium was more than 30 µM throughout.
For `CN[C@H](CC(C)C)C(=O)N[C@H]1C(=O)N[C@@H](CC(N)=O)C(=O)N[C@H]2C(=O)N[C@H]3C(=O)N[C@H](C(=O)N[C@H](C(=O)O)c4cc(O)cc(O)c4-c4cc3ccc4O)[C@H](O)c3ccc(c(Cl)c3)Oc3cc2cc(c3O[C@@H]2O[C@H](CO)[C@@H](O)[C@H](O)[C@H]2O[C@H]2C[C@](C)(N)[C@H](O)[C@H](C)O2)Oc2ccc(cc2Cl)[C@H]1O` [VANCOMYCIN], the IC50 with Enterococcus faecalis was less than 10 µM; with Enterococcus faecium it was more than 10 µM.
Turning to `CC1=C[C@H]2[C@@H]([C@@H](C)CC[C@@H]2O)[C@]2(C)C(=O)C3=C(O)[C@@]4(C[C@@H](C)C(C(=O)O)=C[C@H]4/C=C(\C)CC/C=C(\C)[C@H]12)OC3=O`, the IC50 in the data set on Staphylococcus aureus [4], in the data set on Enterococcus faecalis, with Staphylococcus aureus [5], in the data set with Staphylococcus aureus [6] and in the data set on Enterococcus faecium was more than 30 µM each time.
In the case of `COc1cccc(OC)c1C(=O)N[C@@H]1C(=O)N2[C@@H]1SC(C)(C)[C@@H]2C(=O)O` [METHICILLIN], the IC50 is less than 10 µM with Staphylococcus aureus [4], more than 10 µM with Staphylococcus aureus [5] and more than 10 µM in the data set with Staphylococcus aureus [6].

(Values after ChEMBL document CHEMBL5143711, “Glenthmycins A-M: Macrocyclic Spirotetronate Polyketide Antibacterials from the Australian Pasture Plant-Derived Streptomyces sp. CMB-PB041” (J Nat Prod, 2022).)
